Where a name gives a salt, the structure may show the parent alone. Read-outs that look alike come from different tables or passages of the source.
What was measured:
[1] = test system: Escherichia coli (Juhl); experiment: Acute mouse protection test; format: in vivo, Escherichia coli; female, swiss albino mice; conditions: ip, 168 h, read-out: Effective Dose50 (ED50)
Procedure: (§1) The acute mouse protection test is conducted on 10 mice with each of 5 levels of dug. Mouse mortality is used to calculate a ED50 value, i.e., dose of drug required to protect 50% of the test animals.
(§2) The acute mouse protection test is conducted on female, swiss albino mice, 18-20 grams in weight. The mice are injected intraperitoneally with an 18 hour culture of the indicated test organism diluted sufficiently to provide the desired LD50 value. To check potency of the infection a titration of the indicated test organism is carried out in control animals. The treatment group of animals is dosed with the test fortimicin at one and five hours post-infection and observed for seven days. The ED50 values are calculated using the mortality data collected.

[2] = test system: Klebsiella pneumoniae (4508); experiment: Acute mouse protection test; format: in vivo, Klebsiella pneumoniae; female, swiss albino mice; conditions: ip, 168 h, read-out: Effective Dose50 (ED50)
Procedure: as §1, §2

[3] = test system: Psuedo. aeruginosa 27853; experiment: In vitro antibiotic activity, two-fold dilution test (Mueller-Hinton agar); format: cell-based
Procedure: (§3) The in vitro antibiotic activities are determined by a two-fold dilution test using Mueller-Hinton agar, 10 ml per Petri plate. The inoculum of approximately 1×10^5 of the indicated test organism is delivered by the Steer's replicator. The test is incubated at 37° C. for 24 hours. Fortimicin A tetrahydrochloride and fortimicin A disulfate are used as the control antibiotics. The minimum inhibitory concentrations (MIC), listed in Table I, are expressed in mcg/ml.

[4] = test system: E. coli BL 3676 (Res); experiment: as above; format: cell-based; conditions: for MIC: Escherichia coli, read-out: Minimum inhibitory concentration (MIC)
Procedure: as §3

[5] = test system: Pseudo. aeruginosa KY 8516; experiment: as above; format: cell-based; conditions: for MIC: Pseudomonas aeruginosa
Procedure: as §3

[6] = test system: Enterobacter aerogenes 13048; experiment: as above; format: cell-based; conditions: for MIC: read-out: Minimum inhibitory concentration (MIC)
Procedure: as §3

[7] = test system: Kleb. pneumoniae KY 4262; experiment: as above; format: cell-based; conditions: for MIC: Klebsiella pneumoniae
Procedure: as §3

[8] = test system: Kleb. pneumoniae 10031; experiment: as above; format: cell-based
Procedure: as §3

[9] = test system: Strep. faecalis 10541; experiment: as above; format: cell-based; conditions: for MIC: read-out: Minimum inhibitory concentration (MIC)
Procedure: as §3

[10] = test system: Psuedo. aeruginosa 209; experiment: as above; format: cell-based; conditions: for MIC: read-out: Minimum inhibitory concentration (MIC)
Procedure: as §3

[11] = test system: Proteus mirabilis Fin. #9; experiment: as above; format: cell-based; conditions: for MIC: read-out: Minimum inhibitory concentration (MIC)
Procedure: as §3

[12] = test system: Pseudo. aeruginosa BMH #10; experiment: as above; format: cell-based; conditions: for MIC: Pseudomonas aeruginosa, read-out: Minimum inhibitory concentration (MIC)
Procedure: as §3

[13] = test system: Serratis marcescens 4003; experiment: as above; format: cell-based
Procedure: as §3

[14] = test system: Pseudo. aeruginosa KY 8512; experiment: as above; format: cell-based; conditions: for MIC: Pseudomonas aeruginosa
Procedure: as §3

[15] = test system: Sal. typhimurium Ed. #9; experiment: as above; format: cell-based; conditions: for MIC: Salmonella enterica, read-out: Minimum inhibitory concentration (MIC)
Procedure: as §3

[16] = test system: Proteus rettigeri U6333; experiment: as above; format: cell-based
Procedure: as §3

[17] = test system: Staph. aureus Smith; experiment: as above; format: cell-based; conditions: for MIC: Staphylococcus aureus, read-out: Minimum inhibitory concentration (MIC)
Procedure: as §3

[18] = test system: Providencia 1577; experiment: as above; format: cell-based; conditions: for MIC: read-out: Minimum inhibitory concentration (MIC)
Procedure: as §3

[19] = test system: Proteus vulgaris JJ; experiment: as above; format: cell-based; conditions: for MIC: read-out: Minimum inhibitory concentration (MIC)
Procedure: as §3

[20] = test system: E. coli Juhl; experiment: as above; format: cell-based; conditions: for MIC: Escherichia coli, read-out: Minimum inhibitory concentration (MIC)
Procedure: as §3

[21] = test system: Shigella sonnei 9290; experiment: as above; format: cell-based; conditions: 37° C.; for Minimum inhibitory concentration (MIC): 24 hours
Procedure: as §3

[22] = test system: E. coli 76-2; experiment: as above; format: cell-based
Procedure: as §3

[23] = test system: Proteus mirabilis (Fin 9); experiment: Acute mouse protection test; format: in vivo, Proteus mirabilis; female, swiss albino mice; conditions: ip, 168 h, read-out: Effective Dose50 (ED50)
Procedure: as §1, §2

[24] = E. coli BL 3676 (Res), Mueller-Hinton agar, 37° C., 24 hours
[25] = Psuedo. aeruginosa 209, Mueller-Hinton agar, 37° C., 24 hours
[26] = Proteus mirabilis Fin. #9, Mueller-Hinton agar, 37° C., 24 hours
[27] = Pseudo. aeruginosa BMH #10, Mueller-Hinton agar, 37° C., 24 hours
[28] = Sal. typhimurium Ed. #9, Mueller-Hinton agar, 37° C., 24 hours
[29] = Staph. aureus Smith, Mueller-Hinton agar, 37° C., 24 hours
[30] = Providencia 1577, Mueller-Hinton agar, 37° C., 24 hours
[31] = Proteus vulgaris JJ, Mueller-Hinton agar, 37° C., 24 hours
[32] = E. coli Juhl, Mueller-Hinton agar, 37° C., 24 hours

## COC1CC(N)C(OC2OC(C(C)N)CCC2N)C(O)C1N(C)C(=O)CN (stereo not drawn) [2-deoxyfortimicin A tetrahydrochloride, 2-Deoxyfortimicin A Tetrahydrochloride]
[1]; Escherichia coli (Juhl) infected intraperitoneally, dosed one and five hours post-infection, observed seven days
  ED50: 4.7 mg/kg
[2]; Klebsiella pneumoniae (4508) infected intraperitoneally, dosed one and five hours post-infection, observed seven days
  ED50: 1.5 mg/kg
[3]; Psuedo. aeruginosa 27853, 37° C., 24 hours, read-out: Minimum inhibitory concentration (MIC)
  MIC: 12.5 µg/mL
[4]; [24]
  MIC: 25 µg/mL
[5]; KY8516, Pseudo. aeruginosa KY 8516, 37° C., 24 hours, read-out: Minimum inhibitory concentration (MIC)
  MIC: 50 µg/mL
[6]; Klebsiella aerogenes, Enterobacter aerogenes 13048, Mueller-Hinton agar, 37° C., 24 hours
  MIC: 3.1 µg/mL
[7]; KY4262, Kleb. pneumoniae KY 4262, 37° C., 24 hours, read-out: Minimum inhibitory concentration (MIC)
  MIC: 6.2 µg/mL
[8]; Klebsiella pneumoniae, Kleb. pneumoniae 10031, 37° C., 24 hours, read-out: Minimum inhibitory concentration (MIC)
  MIC: 1.56 µg/mL
[9]; Enterococcus faecalis, Strep. faecalis 10541, Mueller-Hinton agar, 37° C., 24 hours
  MIC: 50 µg/mL
[10]; [25]
  MIC: > 100 µg/mL
[11]; [26]
  MIC: 6.2 µg/mL
[12]; [27]
  MIC: 0.78 µg/mL
[13]; Serratis marcescens 4003, 37° C., 24 hours, read-out: Minimum inhibitory concentration (MIC)
  MIC: 3.1 µg/mL
[14]; KY8512, Pseudo. aeruginosa KY 8512, 37° C., 24 hours, read-out: Minimum inhibitory concentration (MIC)
  MIC: 12.5 µg/mL
[15]; [28]
  MIC: 1.56 µg/mL
[16]; Proteus rettigeri U6333, 37° C., 24 hours, read-out: Minimum inhibitory concentration (MIC)
  MIC: 25 µg/mL
[17]; [29]
  MIC: 0.78 µg/mL
[18]; [30]
  MIC: 3.1 µg/mL
[19]; [31]
  MIC: 3.1 µg/mL
[20]; [32]
  MIC: 6.2 µg/mL
[21]; Shigella sonnei, 9290, 24 h, read-out: Minimum inhibitory concentration (MIC)
  MIC: 6.2 µg/mL
[22]; Escherichia coli, 762, E. coli 76-2, 37° C., 24 hours, read-out: Minimum inhibitory concentration (MIC)
  MIC: 3.1 µg/mL
[23]; Proteus mirabilis (Fin 9) infected intraperitoneally, dosed one and five hours post-infection, observed seven days
  ED50: 4.7 mg/kg

## COC1C(O)C(N)C(OC2OC(C(C)N)CCC2N)C(O)C1N(C)C(=O)CN (stereo not drawn) [Fortimicin A disulfate, fortimicin A disulfate]
[1]; Escherichia coli
  ED50: 4.6 mg/kg
[2]; Klebsiella pneumoniae
  ED50: 2.5 mg/kg
[3]; 24 h, read-out: Minimum inhibitory concentration (MIC), Psuedo. aeruginosa 27853, 37° C.
  MIC: 12.5 µg/mL
[4]; 24 h
  MIC: 25 µg/mL
[5]; KY8516, 24 h, read-out: Minimum inhibitory concentration (MIC), Pseudo. aeruginosa KY 8516, 37° C.
  MIC: 50 µg/mL
[6]; Klebsiella aerogenes, 13048, 24 h
  MIC: 3.1 µg/mL
[7]; KY4262, 24 h, read-out: Minimum inhibitory concentration (MIC), Kleb. pneumoniae KY 4262, 37° C.
  MIC: 6.2 µg/mL
[8]; Klebsiella pneumoniae, 10031, 24 h, read-out: Minimum inhibitory concentration (MIC), Kleb. pneumoniae 10031, 37° C.
  MIC: 3.1 µg/mL
[9]; Enterococcus faecalis, 10541, 24 h
  MIC: 50 µg/mL
[10]; 24 h
  MIC: > 100 µg/mL
[11]; Proteus mirabilis, 24 h
  MIC: 6.2 µg/mL
[12]; 24 h
  MIC: 0.78 µg/mL
[13]; 24 h, read-out: Minimum inhibitory concentration (MIC), Serratis marcescens 4003, 37° C.
  MIC: 1.56 µg/mL
[14]; KY8512, 24 h, read-out: Minimum inhibitory concentration (MIC), Pseudo. aeruginosa KY 8512, 37° C.
  MIC: 12.5 µg/mL
[15]; TYPHIMURIUM, 24 h
  MIC: 1.56 µg/mL
[16]; 24 h, read-out: Minimum inhibitory concentration (MIC), Proteus rettigeri U6333, 37° C.
  MIC: 12.5 µg/mL
[17]; 24 h
  MIC: 0.78 µg/mL
[18]; Providencia, 1577, 24 h
  MIC: 3.1 µg/mL
[19]; Proteus vulgaris, 24 h
  MIC: 6.2 µg/mL
[20]; 24 h
  MIC: 6.2 µg/mL
[21]
  Minimum inhibitory concentration (MIC): 6.2 µg/mL
[22]; Escherichia coli, 762, 24 h, read-out: Minimum inhibitory concentration (MIC), E. coli 76-2, 37° C.
  MIC: 6.2 µg/mL
[23]; Proteus mirabilis
  ED50: 7.5 mg/kg

## COC1C(O)C(N)C(OC2OC(C(C)N)CCC2N)C(O)C1N(C)C(=O)CN (stereo not drawn) [Fortimicin A tetrahydrochloride]
[3]; Psuedo. aeruginosa 27853, 37° C., 24 hours
  Minimum inhibitory concentration (MIC): 25 µg/mL
[4]; [24]
  Minimum inhibitory concentration (MIC): 25 µg/mL
[5]; Pseudo. aeruginosa KY 8516, 37° C., 24 hours
  Minimum inhibitory concentration (MIC): 100 µg/mL
[6]; Enterobacter aerogenes 13048, Mueller-Hinton agar, 37° C., 24 hours
  Minimum inhibitory concentration (MIC): 3.1 µg/mL
[7]; Kleb. pneumoniae KY 4262, 37° C., 24 hours
  Minimum inhibitory concentration (MIC): 3.1 µg/mL
[8]; Kleb. pneumoniae 10031, 37° C., 24 hours
  Minimum inhibitory concentration (MIC): 1.56 µg/mL
[9]; Strep. faecalis 10541, Mueller-Hinton agar, 37° C., 24 hours
  Minimum inhibitory concentration (MIC): 50 µg/mL
[10]; [25]
  Minimum inhibitory concentration (MIC): > 100 µg/mL
[11]; [26]
  Minimum inhibitory concentration (MIC): 6.2 µg/mL
[12]; [27]
  Minimum inhibitory concentration (MIC): 0.78 µg/mL
[13]; Serratis marcescens 4003, 37° C., 24 hours
  Minimum inhibitory concentration (MIC): 3.1 µg/mL
[14]; Pseudo. aeruginosa KY 8512, 37° C., 24 hours
  Minimum inhibitory concentration (MIC): 25 µg/mL
[15]; [28]
  Minimum inhibitory concentration (MIC): 1.56 µg/mL
[16]; Proteus rettigeri U6333, 37° C., 24 hours
  Minimum inhibitory concentration (MIC): 25 µg/mL
[17]; [29]
  Minimum inhibitory concentration (MIC): 0.78 µg/mL
[18]; [30]
  Minimum inhibitory concentration (MIC): 3.1 µg/mL
[19]; [31]
  Minimum inhibitory concentration (MIC): 6.2 µg/mL
[20]; [32]
  Minimum inhibitory concentration (MIC): 6.2 µg/mL
[21]
  Minimum inhibitory concentration (MIC): 12.5 µg/mL
[22]; E. coli 76-2, 37° C., 24 hours
  Minimum inhibitory concentration (MIC): 3.1 µg/mL

From patent US4192867A, “2-Deoxyfortimicin A, 4-N-alkyl and 4-N-acyl-2-deoxyfortimicin B derivatives” (Abbott Laboratories, priority 1977, dated 1980)
